Measured values from patent US20250228833A1, “METHODS AND COMPOSITIONS FOR TREATING AGITATION” (BioXcel Therapeutics, Inc., priority 2021, published 2025).
Where a name gives a salt, the structure may show the parent alone.

How the values were obtained:
[1] = tested on: spontaneous locomotor activity; experiment: Open field test (Example 7); conditions: 60 min post dose, 30 minutes tracking, vs vehicle
Procedure: Test system: Mice Strain/Gender: Swiss albino/Male Study: Open field test
Open field test: The spontaneous locomotor activity in terms of total distance traveled is measured in open field test. Comparatively lower distance traveled would indicate either less motor activity or sedation.
Mice were brought to the laboratory and allowed to acclimatize to the environment for at least 7 days. The open field test was done in lighting conditions of 40 lux light. The mice were dosed as per the allocation. After a post dose interval of 60 minutes, 4 mice from a group were placed in the open field and the movement was tracked for a period of 30 minutes. Once the trial was over the mice were removed from the open field and the arena was cleaned. Following this, next set of 4 mice were placed in the arena and tracked.
The distance travelled for a period of 30 minutes was analyzed in bins of 5 minutes and was compared with that of the vehicle group using one-way ANOVA followed by Dunnett's test. All statistical analysis were performed using Graph pad prism software package (Version 7 or Higher) and p value below 0.05 was considered as significant.

depressive-like behavior = experiment: Forced swim test in dark phase (Example 4)
Procedure: • Species: Rattus norvegicus • Strain: Sprague Dawley (SD) • Sex and Age: Male, 8-10 weeks old • Source: Hylasco Biotechnology Pvt.
Study was carried out as a staggered treatment, each treatment group divided as cohort 1, cohort 2 and cohort 3.
Swim 2 was carried out between 19:30 to 21:30. Animals were administered test compounds from 18:30 onwards in staggered manner 60 minutes before FST 2.
Forced Swim Test was carried out in Dark Phase
On Day 1, animals were subjected to forced swim test training for 15 minutes (Swim 1) and on Day 2, Swim 2 was carried out post treatment.
On day 2 animals were dosed with respective treatment 60 min prior to performing FST.
Forced swim test (Swim 2) was scored manually with no video recording
Forced swim test (FST), was used to study the depressive-like behavior in rodents. The test was carried out in transparent cylindrical glass containers measuring 46 cm in height and 20 cm in diameter.
The containers were filled with water (23-25° C.) to a depth of 30 cm.
There were 2 swim sessions, 24 h apart. The first session, Swim 1 was the pretest/training stage (15 min) and the second session, Swim 2, was the test stage (8 min).
In swim 2, first 1-minute data was excluded from analysis and rest 7 minutes data was considered. In 7 minutes, data, it was divided 5 minutes and 2 minute.
Rat was placed in the water-filled cylinder for 15 min (Swim 1). […]

aggressive behavior = experiment: Resident intruder task (Example 5); assay type: in vivo, Swiss albino mice; conditions: 10 mg/kg i.p., 60 min prior to trial; mean value
Procedure: Strain/Gender: Swiss albino/Male
Bilateral ovariectomy surgery was carried out in 3-4 weeks old female Swiss albino mice as per the standard methods (Alagwu and Nneli, 2005). Animals were anesthetized using Avertin (2,2,2-Tribromoethanol) at 250 mg/kg, i.p. and were laid down on the surgery table and fixed with adhesive plaster. A midline incision was made on the dorsal region below the rib and 1 cm lateral to the either side of midline, a small incision was made on fascia to isolate the adipose fat supporting the ovaries. By slowly pulling out the fat tissue, the ovary was identified and excised the following uterine horn ligation with silk sutures. Fascia was covered with sutures and similar procedure was repeated on the other side as well. Superficial skin layers were sutured and gentamicin (80 mg/kg, s.c.) was given as antibiotic and meloxicam (4 mg/kg, s.c.) as analgesic, then povidone iodine was applied on superficial skin layers. Polyethylene glycol (PEG) was applied to prevent drying of eye balls and kept for recovery period of 3 weeks (surgery was carried by a single experimenter). […]
Data obtained was compared with basal scoring by using Student's paired two tailed t-test. Duration of attack, and latency of attack between the groups was analyzed using One-Way ANOVA followed by Bonferroni's posthoc test. […]

[2] = tested on: yohimbine-induced noradrenergic hyperarousal; experiment: Elevated plus maze, latrepirdine at different doses in yohimbine-induced hyperarousal (Example 3); assay type: in vivo, Wistar rats; conditions: for Percent increase as referred to the Vehicle level, Entries / Percent increase as referred to the Vehicle level, Time: yohimbine 2.5 mg/kg i.p. 30 min, 60 min
Procedure: Drug preparation: All compounds/drugs were prepared in normal saline (0.9% NaCl).
Yohimbine was prepared at a solution of 2.5 mg/mL which when injected i.p. at a dosage volume of 1 mL/kg results in a dose of 2.5 mg/kg. Diazepam was prepared at a solution of 1 mg/mL which when injected i.p. at a dosage volume of 1 mL/kg results in a dose of 1 mg/kg. Latrepirdine dihydrochloride hydrate was prepared at a solution of 7.5, 2.5, 0.75 and 0.25 mg/mL which when injected i.m. at a volume of 100 μL for a rat of 250 g results in doses of 3; 1; 0.3 and 0.1 mg/kg; respectively. Latrepirdine dihydrochloride hydrate was also prepared at […] which when administrated i.p. at a dosage volume of 1 mL/kg results in a dose of 3 mg/kg.
Male Wistar rats (Janvier; Le Genest St Isle-France) were used for the study. They were purchased at a body weight of 150 g and reached a body weight of about 220 g at the time of use. They were group-housed (3-4 rats per cage) and maintained in a room with controlled temperature (21-22° C.) and a reversed light-dark cycle (12 h/12 h; lights on: 17:30-05:30; lights off: 05:30-17:30) with food and water available ad libitum.
Rats were distributed in 9 different experimental groups with 12 rats per group as illustrated in Table 6. Each experimental group was also coded so that the experimenter became unaware of the true experimental group at the time EPM trial.
The rats were randomly assigned to one of the different experimental groups. Each animal was identified by its group name, cage number, series (day) of experiment, and a number (from 1 to 9) written with permanent ink on its tail. They were handled by an experimenter for about 3 min each day during 1 week prior to the day of EPM trial. The apparatus was a PVC maze covered with Plexiglas and subdivided into four equal exploratory arms (40×10 cm), which were all interconnected by a small platform (10×10 cm). The apparatus was placed 65 cm above the floor. Two arms were opened, and two others were closed with wall (high: 10 cm). After compound administration, rat was placed on the platform opposite a closed arm. The number of entries and the time spent in each arm were recorded during a 5 min period. The animal was considered as entered in an arm when it placed its four paws in the arm. The apparatus was cleaned between each animal using alcohol (70%). Urine and feces were removed from the maze. During the trials, animal handling and the visibility of the operator were minimized as much as possible.
Analysis of variance (ANOVA) was performed on the result data. Fisher's PLSD was used for pairwise comparisons and p value≤0.05 were considered significant. For the sake of comparison, the change in the EPM performance of Yohimbine rats was expressed as a percentage of increase/decrease as referred to the level recorded in the vehicle (set as 0% change). Therefore, for each of the EPM parameter, the following formula was used: [performance of a given group-performance of vehicle group]/[performance of vehicle group]×100

[3] = tested on: yohimbine-induced noradrenergic mediated hyperarousal; experiment: Elevated plus maze, yohimbine-induced hyperarousal (Example 2); assay type: in vivo, Wistar rats; conditions: for exploration time (time spent in the open arms) / number of open arm entries: 60 min prior to EPM, yohimbine 2.5 mg/kg i.p. 30 min prior, 5 min period; for reduction of noradrenergic mediated hyperarousal: 10 mg/kg i.m. pretreatment, yohimbine 2.5 mg/kg i.p.
Description: Background: Yohimbine is an alpha 2-adrenergic receptor antagonist reported to trigger panic attacks in healthy volunteers and to exacerbate symptoms in patients with panic disorder (Charney et al., 1992 Acta Psychiatr Scand., Vol. 86 (4): 273-282). Peripheral administration of Yohimbine causes noradrenergic mediated hyperarousal in rats as assessed by the EPM paradigm.
Rationale: The drug yohimbine is a natural product used to test a specific pathway, noradrenergic-mediated hyper-arousal. It is well established that yohimbine is an alpha2-adrenergic receptor antagonist and activates the locus coeruleus (LC) and increases noradrenergic signaling (the opposite of alpha2-adrenergic agonists like dexmedetomidine and clonidine). Increased LC activity and noradrenergic signaling makes animals anxious and agitated which can be measured by using the elevated plus maze. In the elevated plus maze, rodents were in the closed arms and explored the open arms depending on their anxiety and agitation (rats and mice normally explore their environments extensively when calm).
Animal groups: Male: Wistar rats were used in this study and were randomly divided to different experimental groups (12 animals per group).
The test drugs were procured from Sigma or Tocris. dextromethorphan from Sigma Aldrich, Cat No. D9684; latrepirdine from Sigma Aldrich, Cat No. D6196 or Tocris Cat No. 3201 diazepam and fluvoxamine Sigma Aldrich, Cat No. F2802 or Tocris, Cat No. 1033. All these test drugs were formulated in sufficient quantity in 0.9% saline except for Fluvoxamine, which was formulated in 30% ethanol in 0.9% saline.
Apparatus: Elevated Plus Maze (EPM) was used (FIG. 1). The maze consisted of two closed arms and two open arms forming a cross, with a square center platform. All visible surfaces were made of black acrylic. Each arm of the maze was placed on a support column above the floor. Antistatic black vinyl curtains used for surrounding the EPM to make an enclosure.
Study Design and Dosing: Yohimbine was administered by intraperitoneal injection (i.p.) at a dose of 2.5 mg/kg (30 minutes prior to study) to induce agitation and the effects were assessed 30 minutes after yohimbine injection by measuring the number of open arm entries and exploration time in the EPM. The test drugs fluvoxamine, dextromethorphan and latrepirdine dihydrochloride hydrate were administered through intramuscular route and, diazepam through intraperitoneal route into the hindleg thigh muscle of rats (60 minutes prior to study; 30 minutes prior to yohimbine administration). Diazepam was injected 30 minutes intraperitonially prior to the assay i.e. along with yohimbine administration. The study design is illustrated in FIG. 2 and table 5.
After the test drug administration, the rat was placed on the platform opposite a closed arm. The number of entries and the time spent in each arm were recorded during a 5 min period. The animal was considered as entered in arm when it placed its four paws into the arm.
Statistical Analysis: Analysis of variance (ANOVA) was performed on the result data. Fisher's PLSD was used for pairwise comparisons and p value≤0.05 was considered significant.

Cc1cccc([C@H](C)c2cnc[nH]2)c1C [Dexmedetomidine hydrochloride, (+) 4-(S)-[1-(2,3-dimethylphenyl)ethyl]-1H-imidazole]
distance traveled ([1]; 4 μg/kg i.p.): did not show any significant reduction
distance traveled ([1]; 10 μg/kg i.p.): did not show any significant reduction
distance traveled ([1]; 20 μg/kg i.p.): did not show any significant reduction
distance traveled ([1]; 30 μg/kg i.p.): significant reduction
increase in swimming time as compared to vehicle saline (depressive-like behavior; 1 μg/kg i.m.): ~1.6%

Cc1ccc2c(c1)c1c(n2CCc2ccc(C)nc2)CCN(C)C1 [Latrepirdine dihydrochloride hydrate, 2,8-dimethyl-5-[2-(6-methylpyridin-3-yl)ethyl]-3,4-dihydro-1H-pyrido[4,3-b]indole]
duration of attack (aggressive behavior): 36.87 s
distance traveled ([1]; 1 mg/kg i.p.): did not show any significant reduction
distance traveled ([1]; 3 mg/kg i.p.): did not show any significant reduction
distance traveled ([1]; 10 mg/kg i.p.): did not show any significant reduction
increase in swimming time as compared to vehicle saline (depressive-like behavior; 1 mg/kg i.m.): 9.8%
Percent increase as referred to the Vehicle level, Entries ([2]; 1 mg/kg i.m.): significant
Percent increase as referred to the Vehicle level, Time ([2]; 1 mg/kg i.m.): significant
Percent increase as referred to the Vehicle level, Entries ([2]; 3 mg/kg i.m.): significant
Percent increase as referred to the Vehicle level, Time ([2]; 3 mg/kg i.m.): significant
number of visits to and time spent into the open arms, dose dependence ([2]; yohimbine administered rats, 0.1, 0.3, 1 and 3 mg/kg i.m.): dose-dependent increase
EPM performance, i.m. compared with i.p. route ([2]; yohimbine rats, 3 mg/kg i.m. vs 3 mg/kg i.p.): comparable
EPM performance of saline-treated rats ([2]; yohimbine-free rats, 3 mg/kg i.m.): did not significantly modify
exploration time (time spent in the open arms) ([3]; 3 mg/kg i.m.): increased
number of open arm entries ([3]; 3 mg/kg i.m.): significantly increased
exploration time (time spent in the open arms) ([3]; 10 mg/kg i.m.): increased
number of open arm entries ([3]; 10 mg/kg i.m.): significantly increased

COc1ccc2c(c1)[C@]13CCCC[C@@H]1[C@H](C2)N(C)CC3 [dextromethorphan, Dextromethorphan]
reduction of noradrenergic mediated hyperarousal [3]: ineffective
exploration time (time spent in the open arms) ([3]; 10 mg/kg i.m.): no effect
number of open arm entries ([3]; 10 mg/kg i.m.): no effect

COCCCC/C(=N\OCCN)c1ccc(C(F)(F)F)cc1 [fluvoxamine, Fluvoxamine]
reduction of noradrenergic mediated hyperarousal [3]: ineffective
exploration time (time spent in the open arms) ([3]; 10 mg/kg i.m.): no effect
number of open arm entries ([3]; 10 mg/kg i.m.): no effect

COC(=O)[C@@H]1[C@H]2C[C@H]3c4[nH]c5ccccc5c4CCN3C[C@@H]2CC[C@@H]1O [yohimbine, Yohimbine]
number of visits to and time spent into the open arms ([2]; 2.5 mg/kg i.p., vehicle-treated, compared to vehicle-treated saline rats): marked significant decrease
